Biological target: T1, CysLT1 (cysteinyl leukotriene type 1 receptor) (Homo sapiens, UniProt Q9Y271)
T1 construct: gene CYSLTR1
T1 sequence (Q9Y271 1-337): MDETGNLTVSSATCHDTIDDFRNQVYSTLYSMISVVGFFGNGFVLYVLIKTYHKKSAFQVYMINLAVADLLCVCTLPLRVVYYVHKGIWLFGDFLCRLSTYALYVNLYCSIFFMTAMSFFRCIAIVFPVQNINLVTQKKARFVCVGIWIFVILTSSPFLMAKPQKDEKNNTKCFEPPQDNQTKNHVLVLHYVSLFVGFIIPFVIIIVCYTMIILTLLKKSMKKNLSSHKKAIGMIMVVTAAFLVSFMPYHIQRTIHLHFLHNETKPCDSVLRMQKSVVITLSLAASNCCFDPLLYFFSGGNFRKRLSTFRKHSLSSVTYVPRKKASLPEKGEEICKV
Type: cell-based

SMILES: CC(C)(O)c1ccccc1CC[C@@H](SCC1(CC(=O)O)CC1)c1cccc(/C=C/c2ccc3ccc(Cl)cc3n2)c1 [Montelukast]
- antagonism (100 nmol/L) of LTD4/LTE4-induced calcium mobilisation and CCL4 expre: Montelukast fully inhibiting LTE4 responses in LAD2 as well as LTD4 responses in LAD2 and LUVA cells

Source: publication PMC4735867, “Leukotriene E4 is a full functional agonist for human cysteinyl leukotriene type 1 receptor-dependent gene expression” (Scientific Reports, 2016)
